Results reported in patent US20110268789A1, “USE OF PITUITARY ADENYLATE CYCLASE-ACTIVATING POLYPEPTIDE (PACAP) AND PACAP ANALOGS AS ADJUNCTIVE TREATMENTS WITH ANTICANCER AGENTS” (priority 2008, published 2011).

How the values were obtained:
Male C57BL/6 mice = assay: Cisplatin-induced nephrotoxicity in mice; format: in vivo, mouse; conditions: cisplatin 20 mg/kg i.p., FIG. 10
Protocol: (§1) Male C57BL/6 mice were given a single intraperitoneal injection of 20 mg/kg of cisplatin. Twenty nanomoles of PACAP38 were given intraperitoneally 1 hour before the injection of cisplatin and additional doses were given at 24 and 48 hours after the initial dose. The control group of mice was injected intraperitoneally with the same volume of saline as for the injections of cisplatin and PACAP38 on the same schedule. The mice were euthanized 24 hours after the final injection of PACAP38. Each value represents the mean plus/minus the standard error of four determinations. ***p<0.001 and **p<0.01 compared to the group treated only with cisplatin.
as §1, with “PACAP38. TNF-α was extracted from one kidney of each mouse and quantified with an enzyme-linked immunosorbent assay.” for “PACAP38.”
Male C57BL/6 mice were given a single intraperitoneal injection of 20 mg/kg of cisplatin. Twenty nanomoles of PACAP38 were given intraperitoneally 1 hour before the injection of cisplatin and additional doses were given at 24 and 48 hours after the initial dose. The control group of mice were injected intraperitoneally with the same volume of saline as for the injections of cisplatin and PACAP38 on the same schedule. The mice were euthanized 24 hours after the final injection of PACAP38, and the kidneys were removed and fixed in 10% formalin. The fixed sections were stained with hematoxylin and eosin. The sections of the kidneys from control mice show intact renal tubular epithelial cells and well-preserved brush border membranes. The kidneys from mice treated with cisplatin had extensive tubular damage, tubular dilations, intratubular debris, and intratubular casts. […] Tubular damage was more pronounced in the outer cortex in the cisplatin treated mice. The photomicrographs on the left side were made at a lower magnification (×160) than the photomicrographs on the right side (×320). The results described in FIGS. 5, 6, 7, and 8 were from the same experiment.
as §1, with “six” for “four”
as §1, with “The cytoprotective effect of PACAP38 against cisplatin-induced nephrotoxicity was also seen in a common in vivo model. Male” for “Male”, “PACAP38.” for “PACAP38. Each value represents the mean plus/minus the standard error of four determinations. ***p<0.001 and **p<0.01 compared to the group treated only with cisplatin.”

[1] = system: human erythroleukemia cells; assay: Thalidomide-induced apoptotic cell death of erythroleukemia cells; format: cell-based; conditions: thalidomide 48 hours, FIG. 20
Protocol: The human myeloid leukemia cells were cultured in RPMI 1640 medium supplemented with 10% non-inactivated fetal bovine serum. The effects of PACAP38, [D-Ser^2]PACAP38 and VIP on apoptotic cell death was assessed by the quantitative determination of cytoplasmic histone-associated DNA-fragmentation (mono- and oligonucleosomes) after exposure to thalidomide for 48 hours. Each value represents the mean plus/minus the standard deviation of four determinations. **p<0.01 and *p<0.05 compared to the thalidomide-treated (control) cells.

PAC1 receptor = biological target: T1, PAC1 receptor (Homo sapiens, UniProt P41586); conditions: cited from earlier work
T1 sequence (P41586 21-468): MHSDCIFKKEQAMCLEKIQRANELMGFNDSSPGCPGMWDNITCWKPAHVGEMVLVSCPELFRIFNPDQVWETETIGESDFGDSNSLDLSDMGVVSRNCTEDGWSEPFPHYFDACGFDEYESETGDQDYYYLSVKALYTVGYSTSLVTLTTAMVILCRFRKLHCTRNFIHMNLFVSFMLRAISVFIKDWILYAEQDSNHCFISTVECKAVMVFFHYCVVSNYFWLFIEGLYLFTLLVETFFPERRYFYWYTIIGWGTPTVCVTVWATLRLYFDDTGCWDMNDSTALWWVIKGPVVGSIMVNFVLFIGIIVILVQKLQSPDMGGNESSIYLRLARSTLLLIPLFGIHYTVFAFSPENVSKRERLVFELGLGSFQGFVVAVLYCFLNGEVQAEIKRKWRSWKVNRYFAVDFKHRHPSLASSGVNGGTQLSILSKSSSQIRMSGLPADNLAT

Substance: VIP
- relative potency as cytoprotectants against cisplatin-induced impairment of kidney function (serum creatinine) (Male C57BL/6 mice): less potent
- effect on thalidomide-induced apoptotic cell death [1]: dose-dependent enhancement
- affinity for the PAC1 receptor relative to PACAP (PAC1 receptor): 1,000 times less
